Laboratory results from patent US20160113931A1, “Method of treating and/or preventing neurodegenerative diseases” (University of Macau, priority 2014, published 2016).
Entries after “also recorded” stand apart in the source; their conditions may differ.

Tests used:
ROCK2 = ROCK2 (Homo sapiens, UniProt O75116); experiment: Kinase activity assay ROCK2; type: biochemical; settings: read-out: ROCK 2 IC50
From the text: ROCK has two isoforms (ROCK1 and ROCK2) sharing the same downstream proteins. Bioassay and molecular docking are used to compare the characteristics of BHDPC on ROCK. […] Through molecular docking and molecular dynamics simulation, the interaction between the inhibitor and ROCK1 was shown in FIG. 17.

caspase 3 = experiment: Caspase 3 activity assay in SH-SY5Y cells; type: cell-based, human
Protocol: After pre-treatment with 30 μM BHDPC or 0.1% DMSO (vehicle control) for 2 h, SH-SY5Y cells were incubated with or without 2 mM MPP^+ for another 36 h. (FIG. 6A) Δψm was determined by the JC-1 assay.
After treatment, the activity of caspase 3 was measured using the commercially available EnzChek Caspase-3 Assay Kit (Invitrogen, USA) according to the manufacturer's protocol. Briefly, SH-SY5Y cells were lysed in lysis buffer and centrifuged at 12,500×g for 5 min. 15 μL of cell lysate was incubated with 50 μL of 2× substrate working solution at room temperature for 30 min in 96-well plates. The fluorescence intensity was then determined by a SpectraMax M5 microplate reader at an excitation wavelength of 490 nm and emission at 520 nm. The fluorescence intensity of each sample was normalized to the protein concentration of sample. All values of % caspase 3 activities were normalized to the control group.
Caspase 3 activation plays a key role in the execution-phase of the apoptosis.

SH-SY5Y cells = experiment: MPP+-induced LDH leakage in SH-SY5Y cells (LDH assay); type: cell-based, human; settings: 2 h pre-treatment, MPP+ 36 h, MPP+ alone 209%, normalized to control
Protocol: Cells were pre-treated with BHDPC (3, 10 and 30 μM) for 2 h and then incubated with or without 1 mM MPP^+ for further 24 h. Cell viability was measured by the MTT assay.
Cell cytotoxicity was also determined by measuring the activity of LDH released into the incubation medium when cellular membranes were damaged. Cells were seeded at 96-well plates (5×10^3 cells/well). After treatment, the released LDH activity in the medium was measured according to the instructions of the Cytotoxicity Detection Kit (Roche Applied Science, Mannheim, Germany). Absorbance at 490 nm was measured using SpectraMax M5. All values of LDH released were normalized to the control group.
The protective activity of BHDPC was also confirmed by the lactate dehydrogenase (LDH) assay. SH-SY5Y cells were treated with BHDPC for 2 h before exposed to MPP^+ for 36 h.

[1] = tested on: oligodendroglial progenitor cells (OPCs); experiment: OPC proliferation (EdU incorporation assay and Ki67 immunostaining); type: cell-based, rat; settings: 2 days
Protocol: (§1) FIGS. 10A, 10B and 10C show the effects of BHDPC in oligodendroglial progenitor cells (OPCs) proliferation. OPCs were incubated with the drugs at indicated concentrations in proliferation medium for 2 days. (FIG. 10A) The cell viability was measured by MTT assay.
(§2) Purified OPC cultures were prepared as described. In brief, primary rat mixed glial cell cultures were isolated from whole brains of postnatal day (P) 2 rats, dissociated into single cells, and cultured into poly-D-lysine (PDL) coated T75 tissue culture flasks. Plating medium consisted of Dulbecco's modified Eagle's medium (DMEM, Invitrogen, Carlsbad, Calif.) supplemented with 10% fetal bovine serum (FBS; Invitrogen, Carlsbad, Calif.), […]. Tissue cultures were maintained at 37° C. in a humidified 5% CO2 incubator, and medium was exchanged every 3 days. Once confluent (after 10-15 days), microglia were separated by mechanical shaking of flasks on a rotary shaker for 60 mM at 250 rpm and removed. […]
OPC was incubated with BHDPC or 0.1% DMSO in the proliferation medium for two days. […] Photographs were captured by fluorescence microscope.
To test the effect of BHDPC on primary OPC culture, OPCs were treated with BHDPC for 48 h and the cell viability was determined using MTT assay. […]

[2] = tested on: oligodendroglial progenitor cells (OPCs); experiment: OPC proliferation (MTT assay); type: cell-based, rat; settings: Rattus norvegicus, 48 h, read-out: OPC viability compared with the control group
Protocol: as §1
(§3) The percentage of surviving cells was estimated by determining the activity of mitochondrial dehydrogenases with 3(4,5-dimethylthiazol-2-yl)-2,5-diphenyltetrazolium bromide (MTT) assay. After drug treatment, cells were incubated at 37° C. for 4 h in 0.5 mg/mL MTT solution. The medium was then removed, and 100 μL of DMSO was added to each well to dissolve the violet formazan crystals. The absorbance of the samples was measured at a wavelength of 570 nm with 655 nm as a reference wavelength. All values were normalized to the control groups.
(§4) Purified OPC cultures were prepared as described. In brief, primary rat mixed glial cell cultures were isolated from whole brains of postnatal day (P) 2 rats, dissociated into single cells, and cultured into poly-D-lysine (PDL) coated T75 tissue culture flasks. Plating medium consisted of Dulbecco's modified Eagle's medium (DMEM, Invitrogen, Carlsbad, Calif.) supplemented with 10% fetal bovine serum (FBS; Invitrogen, Carlsbad, Calif.), […]. Tissue cultures were maintained at 37° C. in a humidified 5% CO2 incubator, and medium was exchanged every 3 days. Once confluent (after 10-15 days), microglia were separated by mechanical shaking of flasks on a rotary shaker for […] at 250 rpm and removed. After addition of fresh medium, the remaining cells were allowed to recover overnight before repeating the mechanical shaking for an additional 16 h at 200 rpm to isolate OPCs. To ensure purity of OPC cultures, the isolated cells were transferred to a tissue culture dish, from which the loosely attached OPCs were detached by gentle shaking after 60 min, leaving behind attached microglia and astrocytes. OPCs were plated onto PDL coated 96 well plates using an automated dispenser and allowed to adhere to the plates over the next 1-2 days.
(§5) To test the effect of BHDPC on primary OPC culture, OPCs were treated with BHDPC for 48 h and the cell viability was determined using MTT assay. […] The proliferation activity of BHDPC was also confirmed by the EdU incorporative assay.

[3] = OPC proliferation (MTT assay); type: cell-based, rat; settings: rat, primary oligodendroglial progenitor cells (OPCs), 100 μM, read-out: OPC viability compared with the control group (cytotoxicity)
Protocol: as §1, §3, §4, §5

[4] = tested on: oligodendroglial progenitor cells (OPCs); experiment: Hydrogen peroxide-induced OPC death (MTT assay); type: cell-based, rat; settings: 30 μM, 200 μM hydrogen peroxide 6 h
Protocol: OPCs were incubated with 30 μM BHDPC or 0.1% DMSO (vehicle control) for 2 h followed by the addition or not of 200 μM H2O2 for a further 6 h (FIG. 11A) or LPS (FIG. 11B) for 24 h.
as §3
as §2, with “days.” for “days. Once confluent (after 10-15 days), microglia were separated by mechanical shaking of flasks on a rotary shaker for 60 mM at 250 rpm and removed.”

ROCK2, sequence (O75116 whole entry, species assumed, canonical isoform): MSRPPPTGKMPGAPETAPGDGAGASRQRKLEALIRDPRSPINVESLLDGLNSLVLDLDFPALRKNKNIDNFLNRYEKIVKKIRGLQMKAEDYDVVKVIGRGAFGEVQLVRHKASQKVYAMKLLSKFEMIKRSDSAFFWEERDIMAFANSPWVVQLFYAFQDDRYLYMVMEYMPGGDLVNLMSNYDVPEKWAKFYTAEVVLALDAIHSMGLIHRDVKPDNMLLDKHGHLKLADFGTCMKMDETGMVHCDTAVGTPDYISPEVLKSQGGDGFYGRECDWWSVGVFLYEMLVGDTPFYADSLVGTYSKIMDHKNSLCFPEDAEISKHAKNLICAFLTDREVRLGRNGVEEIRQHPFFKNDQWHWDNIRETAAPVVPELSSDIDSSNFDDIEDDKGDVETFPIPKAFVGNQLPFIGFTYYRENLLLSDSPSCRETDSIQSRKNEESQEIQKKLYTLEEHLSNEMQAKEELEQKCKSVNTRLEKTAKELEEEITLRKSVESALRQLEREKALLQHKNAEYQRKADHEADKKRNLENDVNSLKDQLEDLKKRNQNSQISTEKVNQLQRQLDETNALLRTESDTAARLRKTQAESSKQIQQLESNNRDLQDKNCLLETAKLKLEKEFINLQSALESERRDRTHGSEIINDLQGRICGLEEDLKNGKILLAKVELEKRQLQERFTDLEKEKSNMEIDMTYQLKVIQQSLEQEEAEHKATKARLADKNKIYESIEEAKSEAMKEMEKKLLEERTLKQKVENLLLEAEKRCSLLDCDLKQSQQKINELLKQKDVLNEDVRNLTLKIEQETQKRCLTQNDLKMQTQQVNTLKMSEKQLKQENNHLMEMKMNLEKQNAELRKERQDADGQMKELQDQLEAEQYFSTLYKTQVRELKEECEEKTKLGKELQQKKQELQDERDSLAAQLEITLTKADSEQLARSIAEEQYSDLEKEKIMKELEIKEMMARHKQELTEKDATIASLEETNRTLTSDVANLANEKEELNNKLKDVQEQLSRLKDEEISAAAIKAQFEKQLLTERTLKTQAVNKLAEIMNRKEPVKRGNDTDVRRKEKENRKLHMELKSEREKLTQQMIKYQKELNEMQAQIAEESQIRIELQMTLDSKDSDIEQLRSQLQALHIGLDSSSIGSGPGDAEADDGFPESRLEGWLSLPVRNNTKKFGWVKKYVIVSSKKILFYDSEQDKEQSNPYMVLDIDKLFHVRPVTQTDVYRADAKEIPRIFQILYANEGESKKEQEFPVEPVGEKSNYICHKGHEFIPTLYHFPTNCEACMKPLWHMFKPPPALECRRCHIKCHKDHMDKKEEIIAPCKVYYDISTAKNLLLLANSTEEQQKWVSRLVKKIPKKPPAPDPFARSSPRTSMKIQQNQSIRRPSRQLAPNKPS

COc1cc(C2C(C(=O)OCc3ccccc3)=C(C)Nc3nnnn32)ccc1O (centres unmarked) [BHDPC, benzyl 7-(4-hydroxy-3-methoxyphenyl)-5-methyl-4,7-dihydrotetrazolo[1,5-a]pyrimidine-6-carboxylate]
IC50 (ROCK2): 408 µM
MPP+-induced caspase 3 activation (caspase 3; 30 μM pre-treatment, 2 mM MPP+ 36 h): significantly reduced; also recorded: attenuated
caspase 3 activity (caspase 3; BHDPC alone, without MPP+): did not affect caspase 3 activity
MPP+-induced LDH leakage (SH-SY5Y cells; 3 μM): 200%
MPP+-induced LDH leakage (SH-SY5Y cells; 10 μM): 184%
MPP+-induced LDH leakage (SH-SY5Y cells; 30 μM): 170%
ratio of EdU+/oligo2 cells ([1]; 30 μM): increased
ratio of Ki67+/oligo2 cells [1]: increased
viability at 1 µM ([2]; 1 μM): 100%
viability at 3 µM ([2]; 3 μM): 106%
viability at 10 µM ([2]; 10 μM): 127%
viability at 30 µM ([2]; 30 μM): 152%
viability at 48 h, 100 µM [3]: 65%
hydrogen peroxide-induced cell death [4]: dramatically attenuated
